Source: US4530932A, “4-(1H-indol-3-yl)-α-methyl-piperidine-1-ethanol derivatives” (Roussel Uclaf, priority 1982, dated 1985)
Counter-ions that a name gives are not always drawn. Like-named read-outs stand apart in the source and are kept apart here.

Experiments:
[1] = tested on: Rat arteries (arterial contractions, entry of calcium ions into the cells of smooth muscles); assay: In vitro anticalcic activity (inhibition of potassium-depolarized, calcium-induced contractions of isolated rat arteries); assay type: cell-based; conditions: dose inhibiting by 50% the contractions caused by potassium ions (100 mM), 37° C., read-out: CI50 (the source's name)
Experimental: Rat arteries decoupled in a spiral were attached to a tension collector and were maintained in tanks containing 2.5 ml of Krebs-sodium bicarbonate buffer (NaCl: 120.8 mM, KCl: 5.9 mM, MgCl2 : 1.2 mM, NaH2 PO4 : 1.2 mM, NaHCO3 : 15.5 mM, glucose: 12.6 mM), at 37° C. covered with a 95%-5% oxygen-carbon dioxide mixture. The preparations were depolarized with a buffered solution containing 100 mM of potassium ions (NaCl: 26.7 mM, KCl: 100 mM, MgCl2 : 1.2 mM, NaH2 PO4 : 1.2 mM, NaHCO3 : 15.5 mM, glucose 12.6 mM).
A volume of 25 μl of calcium chloride was added to the mixture in a manner to obtain a range of increasing concentrations of calcium ions from 0.1 to 3.0 mM and the contractions of the artery were measured to obtain a control. The operation with range of calcium ions was repeated every 15 minutes and the preparation was washed 4 times after each range. When a stable response was obtained, the operation with the range of calcium ions was effected in the presence of varying concentrations of test compounds until a stable response was obtained.
The arterial contractions depend on the entry of calcium ions into the cells of smooth muscles and are provoked by depolarization of smooth muscles by potassium ions and by action of noradrenaline freed by presynapthic level. By recommencing the operation with denerved arteries by the action of 6-hydroxy-dopamine, the specific action due to noradrenaline is suppressed.

mice = assay: Acute toxicity (DL0, oral); assay type: in vivo, mouse; design: unit not given here
[2] = tested on: carotidien arterial pressure in rats; assay: Hypotensive activity (carotidien arterial pressure in anesthesized rats); assay type: in vivo, rat (Wistar); conditions: rat, intravenous
Experimental: The hypotensive activity was studied on male rats of the Wistar strain weighing about 300 g and anesthesized with 50 mg/kg of nembutal intraveinously. The test products were administered intraveinously by the jugular vein and the carotidien arterial pressure was measured before and after administration of the test compounds. The variations expressed in percentage of arterial pressure after administration with respect to the initial pressure is reported in Table IV.

α1 adrenergic receptors = assay: Affinity for α1 adrenergic receptors (3H prazosine displacement, rat brain); assay type: binding; conditions: relative to phentolamine (ARL=100×(CB/CX)), 25° C., pH 7.7
Experimental: After centrifugation at 30,000 g for 15 minutes at 0° to 4° C., the culot was suspended in 240 ml of buffer Tris HCl 50 mM (pH-7.7) and the suspension was centrifuged at 30,000 g for 20 minutes at 0° to 4° C. The new culot was suspended in 480 ml of buffer Krebs Tris HCl (pH of 7.7-50 mM) and 2 ml of the suspension in the presence of 3H prazosine at a concentration of […] alone and with increasing concentrations of the test compound or with non-radioactive phentolamine at a concentration of 10^-5 M to determine the non-specific fixation was incubated at 25° C. for 30 minutes.
The incubated suspensions were filtered through Whatman FG/C and the filtered were washed with 3 times with 5 ml of buffer Krebs Tris HCl-pH of 7.7 at 0° to 4° C. The radioactivity of the filters was measured by liquid scintillation and the affinity of the test compound for α1 adrenergic receptors was compared relative to phentolamine as the reference compound by the formula
CD=concentration of phentolamine inhibiting by 50% the specific fixation of 3H prazosine.
CX=concentration of test product inhibiting by 50% the specific fixation of 3H prazosine.

[3] = tested on: cardiac rhythm troubles in guinea pigs; assay: Antiarythmic action (K-strophanthine and adrenaline induced cardiac rhythm troubles); assay type: in vivo, guinea pig; conditions: Cavia porcellus, 1 h, oral 10 mg/kg, one hour before K-strophanthine and adrenaline perfusion, read-out: Percentage of protection (lengthening of the time of appearance of cardiac rhythm troubles as compared to controls)
Experimental: Male guinea pigs weighing between 450 and 500 g were tracheotomized while anesthesized by intraperitoneal administration of […] of urethane and were subjected to artifical respiration of 40 to 50 breaths of 5 ml per minute. Needles were subcutaneously implanted to register an electrocardiogram of the guinea pigs for the signal of D II derivation. The test products were orally administered and one hour later, the jugular vein of the guinea pigs were perfused with 0.5 ml per minute of a solution of 150 γ/ml of K-strophanthine and 0.5 ml per minute of a solution of 5 γ/ml of adrenaline and the number of times of the appearance of cardiac rhythm troubles was noted. The results are expressed in percentage of protection with an oral dose of 10 mg/kg of test product that is to say the percentage of lengthening of the time of appearance of cardiac rhythm troubles as compared to the controls.

[4] = 1 min, 1 minute, read-out: % Variation of arterial pressure after administration, 1 minute
[5] = 5 min, 5 minutes, read-out: % Variation of arterial pressure after administration, 5 minutes
[6] = 10 min, 10 minutes, read-out: % Variation of arterial pressure after administration, 10 minutes
[7] = 0.5 h, 30 minutes, read-out: % Variation of arterial pressure after administration, 30 minutes

Row | Compound | IC50 [1] [µM] | DL0 (maximum dose which did not cause any deaths after 8 days) (mice) | change in vivo at 1 mg/kg [2, 4] [%] | change in vivo at 1 mg/kg [2, 5] [%] | change in vivo at 1 mg/kg [2, 6] [%] | change in vivo at 1 mg/kg [2, 7] [%] | % Arl (relative affinity for α1 adrenergic receptors) (α1 adrenergic receptors) [%] | change in vivo at 10 mg/kg [3] [%]
1 | C=CCOc1ccccc1OCC(O)CN1CC=C(c2c[nH]c3ccccc23)CC1 (stereo not drawn) [Example 24, 4-(1H--indol-3-yl)-α-[2-prop-2-enyloxy)-phenoxymethyl]-1,2,3,6,tetrahydropyridine-1-ethanol fumarate] | 0.7 | > 200 | -10 | -16 | -11 | -17 | – | –
2 | OC(COc1cccc(Cl)c1)CN1CCC(c2c[nH]c3ccccc23)CC1 (stereo not drawn) [Example 22, 4-(1H--indol-3-yl)-α-[3-chloro-phenoxymethyl]-piperidine-1-ethanol hydrochloride] | 1.8 | 80 | – | – | – | – | 70 | –
3 | C=CCOc1ccc(OCC(O)CN2CCC(c3c[nH]c4ccccc34)CC2)cc1 (stereo not drawn) [Example 26, 4-(1H--indol-3-yl)-α-[4-prop-2-enyloxy)-phenoxymethyl]-piperidine-1-ethanol hydrochloride] | 1.5 | > 200 | – | – | – | – | – | 68
4 | C=CCOc1ccccc1OCC(O)CN1CCC(c2cn(C)c3ccccc23)CC1 (stereo not drawn) [Example 31, 4-(1-methyl-1H--indol-3-yl)-α-[2-(prop-2-enyloxy)-phenoxymethyl]-piperidine-1-ethanol fumarate] | 3 | – | – | – | – | – | – | 49
5 | Oc1cccc(OCC(O)CN2CCC(c3c[nH]c4ccccc34)CC2)c1 (stereo not drawn) [Example 30, 4-(1H--indol-3-yl)-α-[3-hydroxyphenoxymethyl]-piperidine-1-ethanol hydrochloride] | – | > 100 | – | – | – | – | – | 86
6 | OC(COc1ccc(Cl)c(Cl)c1)CN1CCC(c2c[nH]c3ccccc23)CC1 (stereo not drawn) [Example 29, 4-(1H--indol-3-yl)-α-[3,4-dichlorophenoxymethyl]-piperidine-1-ethanol hydrochloride] | 2.4 | > 100 | – | – | – | – | – | 53
7 | Cc1ccc(OCC(O)CN2CCC(c3c[nH]c4ccccc34)CC2)cc1 (stereo not drawn) [Example 21, 4-(1H--indol-3-yl)-α-[4-methylphenoxymethyl]-piperidine-1-ethanol hydrochloride] | 1.8 | > 100 | – | – | – | – | 93 | 60
8 | OC(COc1ccc(C(F)(F)F)cc1)CN1CCC(c2c[nH]c3ccccc23)CC1 (stereo not drawn) [Example 25, 4-(1H--indol-3-yl)-α-[4-trifluoramethylphenoxymethyl]-piperidine-1-ethanol hydrochloride] | 1.5 | 100 | -5 | -14 | -6 | -14 | – | 35
9 | O=[N+]([O-])c1ccc(OCC(O)CN2CCC(c3c[nH]c4ccccc34)CC2)cc1 (stereo not drawn) [Example 5, 4-(1H--indol-3-yl)-α-[4-nitrophenoxymethyl]-piperidine-1-ethanol hydrochloride] | 4.5 | > 200 | – | – | – | – | 77 | 82
10 | C=CCOc1cccc(OCC(O)CN2CCC(c3c[nH]c4ccccc34)CC2)c1 (stereo not drawn) [Example 28, 4-(1H--indol-3-yl)-α-[3-(prop-2-enyloxy)-phenoxymethyl]-piperidine-1-ethanol hydrochloride] | 2.4 | > 100 | -5 | -10 | -6 | -9 | – | 103
11 | C=CCOc1ccccc1OCC(O)CN1CCC(c2c[nH]c3ccc(OC)cc23)CC1 (stereo not drawn) [Example 32, 4-(5-methoxy-1H--indol-3-yl)-α -2-(prop-2-enyloxy)-phenoxymethyl]-piperidine-1-ethanol fumarate] | 1.9 | – | – | – | – | – | – | 20
12 | Nc1ccccc1OCC(O)CN1CCC(c2c[nH]c3ccccc23)CC1 (stereo not drawn) [Example 19, 4-(1H--indol-3-yl)-α-[2-amino-phenoxymethyl]-piperidine-1-ethanol fumarate] | – | > 100 | – | – | – | – | – | 165
13 | OC(COc1ccccc1)CN1CCC(c2c[nH]c3ccccc23)CC1 (stereo not drawn) [Example 3, 4-(1H--indol-3-yl)-α-[phenoxymethyl]-piperidine-1-ethanol hydrochloride] | 2.5 | – | – | – | – | – | – | 55
14 | COc1cccc(OCC(O)CN2CCC(c3c[nH]c4ccccc34)CC2)c1 (stereo not drawn) [Example 23, 4-(1H--indol-3-yl)-α-[3-methoxyphenoxymethyl]-piperidine-1-ethanol hydrochloride] | 2.7 | > 200 | -7 | -19 | 14 | -17 | – | 73
15 | CC(=O)Nc1ccccc1OCC(O)CN1CCC(c2c[nH]c3ccccc23)CC1 (stereo not drawn) [Example 20, 4-(1H--indol-3-yl)-α-[2-acetamidophenoxymethyl]-piperidine-1-ethanol hydrochloride] | – | – | – | – | – | – | 311 | –
16 | COc1ccc(OCC(O)CN2CCC(c3c[nH]c4ccccc34)CC2)cc1OC (stereo not drawn) [Example 27, 4-(1H--indol-3-yl)-α-[3,4-dimethoxyphenoxymethyl]-piperidine-1-ethanol hydrochloride] | – | 80 | – | – | – | – | – | 115
17 | Cc1cccc(OCC(O)CN2CCC(c3c[nH]c4ccccc34)CC2)c1 (stereo not drawn) [Example 18, 4-(1H--indol-3-yl)-α-[3-methylphenoxymethyl]-piperidine-1-ethanol hydrochloride] | 2 | > 100 | – | – | – | – | – | 23
18 | COc1ccc(OCC(O)CN2CCC(c3c[nH]c4ccccc34)CC2)cc1 (stereo not drawn) [Example 8, 4-(1H--indol-3-yl)-α-[4-methoxyphenoxymethyl]-piperidine-1-ethanol hydrochloride] | 4.2 | > 200 | -10 | -13 | 0 | -13 | 222 | 57
19 | COc1ccccc1OCC(O)CN1CCC(c2c[nH]c3ccccc23)CC1 (stereo not drawn) [Example 14, 4-(1H--indol-3-yl)-α-[2-methoxyphenoxymethyl]-piperidine-1-ethanol hydrochloride] | 11 | > 100 | – | – | – | – | – | 83
